Measurements: patent US20250197447A1, “PEPTIDE HAVING ANTI-AGING ACTIVITY, AND USE THEREOF” (CAREGEN CO., LTD., priority 2021, published 2025)

Legend:
MMP-2 = test: Gelatin zymography of MMP-2 in culture medium after UV irradiation of fibroblasts; assay type: cell-based, mouse; conditions: NIH3T3 cells, peptide 10, 50, 100 μM before 6 J/cm^2 UVA, 48 hours culture, FIGS. 4A, 4C
Description: (§1) The expression of MMP-1 and MMP-2 encoding proteins related to collagen degradation is increased by ultraviolet irradiation. Therefore, it was confirmed whether the synthesis of the MMP-1 and MMP-2 proteins was inhibited again and the cell aging phenomenon was inhibited when treated with the peptide of the present invention.
(§2) First, NIH3T3 cells were seeded in a 6-well plate at a cell density of 5×10^5 cell/well, and then the cells were cultured in DMEM medium containing 10% fetal bovine serum (FBS) for 24 hours. The cultured cells were washed once with serum free DMEM medium, and the peptide of the present invention was mixed in 1 mL of the serum free DMEM medium at each of concentrations of 10, 50, and 100 μM, and dispensed into the cells. A positive control (PC) was treated with 2.5 mM of N-Acetylcysteine (NaC) instead of the above peptide.
(§3) The cells were cultured in a CO2 incubator at 37° C. for 1 hour. The medium of the cultured cells was transferred to a tube, 1 ml of PBS was added, and irradiation was performed with 6 J/cm^2 of UVA using a UV irradiator (VILBER LOURMAT, Cat No.: 3102-BSU, France). After removing PBS, 900 μL of the medium transferred to the tube was added, and culture was performed in a CO2 incubator at 37° C. for 48 hours. […]

collagen (Col1a1) = test: RT-PCR of collagen (Col1a1) mRNA decreased by UV irradiation in fibroblasts; assay type: cell-based, mouse; conditions: NIH3T3 cells; peptide 10, 50, 100 μM before 6 J/cm^2 UVA; 6 hours culture; FIGS. 2A, 2B
Description: (§4) Expression of collagen, fibronectin, and elastin genes constituting the extracellular matrix (ECM) is inhibited when irradiated with UV. Therefore, it was confirmed whether the photoaging phenomenon of the cells was inhibited by confirming whether the expression levels of collagen, fibronectin, and elastin genes were restored and increased when treated with the peptide of the present invention.
as §2, with “50 μM” for “2.5 mM”, “Quercetin” for “N-Acetylcysteine (NaC)”
(§5) The cells were cultured in a CO2 incubator at 37° C. for 1 hour. […] The amount of RNA isolated was quantified, 1,000 ng of RNA per tube was added, and reverse transcription into cDNA was performed using a kit (enzynomics, Cat. No.: RT200, Korea), and RT-PCR was performed using a PCR kit (enzynomics, Cat. No.: P581T, Korea). […]

[1] = system: NIH3T3 cells (mouse fibroblast cell line); test: Intracellular reactive oxygen species (ROS) level after UVA irradiation, DCFH-DA / FACS; assay type: cell-based; conditions: peptide 10, 50, 100 μM for 1 hour before 8 J/cm^2 UVA, 24 hours culture, FIG. 1
Description: The reactive oxygen species level increases when UV is irradiated. Therefore, it was confirmed whether the reactive oxygen species level decreased again and the aging phenomenon caused by oxidative stress in cells was inhibited when treated with the peptide of the present invention.
as §2, with “NIH3T3 cells (mouse fibroblast cell line) were seeded” for “NIH3T3 cells were seeded”, “μM, and then dispensed into” for “μM, and dispensed into”, “treated with 7.5 mM of” for “treated with 2.5 mM of”
The cells were cultured in a CO2 incubator at 37° C. for 1 hour. The medium of the cultured cells was transferred to a tube, 1 ml of PBS was added, and irradiation was performed with 8 J/cm^2 of UVA using a UV irradiator (VILBER LOURMAT, Cat No.: 3102-BSU, France). After removing PBS, 900 μL of the medium transferred to the tube was treated again, and culture was performed in a CO2 incubator at 37° C. for 24 hours. […] After centrifugation, the cells were washed with PBS, and a fluorescence value was measured through FACS.

elastin = test: RT-PCR of elastin mRNA decreased by UV irradiation in fibroblasts; assay type: cell-based, mouse; conditions: NIH3T3 cells; peptide 10, 50, 100 μM before 6 J/cm^2 UVA; 6 hours culture; FIGS. 2A, 2D
Description: as §4
as §2, with “50 μM” for “2.5 mM”, “Quercetin” for “N-Acetylcysteine (NaC)”
as §5

MMP-1 [2] = test: Western blot of MMP-1 increased by UV irradiation in fibroblasts; assay type: cell-based, mouse; conditions: NIH3T3 cells; peptide 10, 50, 100 μM before 6 J/cm^2 UVA; 48 hours culture; FIGS. 4A, 4B
Description: as §1, §2, §3

MMP-1 [3] = test: Western blot of MMP-1 increased by heat treatment in fibroblasts; assay type: cell-based, mouse; conditions: NIH3T3 cells; peptide 10, 50, 100 μM for 24 hours before 44° C. for 40 minutes; 8 hours culture; FIGS. 5A, 5B
Description: The expression of MMP-1 encoding proteins related to collagen degradation increases by heat treatment. Therefore, it was confirmed whether the synthesis of the MMP-1 protein was inhibited again and the cell aging phenomenon was inhibited when treated with the peptide of the present invention.
as §2, with “(NaC) or 2 mM of Glutathione (GSH)” for “(NaC)”
The cells were cultured in a CO2 incubator at 37° C. for 24 hours. A lid and a lower plate of the 6-well plate were sealed with a paraffin film for heat treatment, the lower plate was immersed in a water bath at 44° C., and culture was performed for 40 minutes. After removing the medium, 1 mL of the serum free DMEM medium was added, and culture was performed in a CO2 incubator at 37° C. for 8 hours. Thereafter, the cells were washed twice with PBS, and then a cell lysis buffer was added to obtain a lysate. […]

fibronectin = test: RT-PCR of fibronectin mRNA decreased by UV irradiation in fibroblasts; assay type: cell-based, mouse; conditions: NIH3T3 cells; peptide 10, 50, 100 μM before 6 J/cm^2 UVA; 6 hours culture; FIGS. 2A, 2C
Description: as §4
as §2, with “50 μM” for “2.5 mM”, “Quercetin” for “N-Acetylcysteine (NaC)”
as §5

[4] = system: apoptotic-inducing factors (Cleaved PARP-1, Bax, Cleaved Caspase-3); test: Western blot of apoptotic-inducing factors increased by UV irradiation in NIH3T3 fibroblasts; assay type: cell-based, mouse; conditions: peptide 10, 50, 100 μM before 6 J/cm^2 UVA, 48 hours culture, FIGS. 3A to 3D
Description: Expression of the apoptotic-inducing factors increases when irradiated with UV. Therefore, it was confirmed whether the photoaging phenomenon of the cells was inhibited and the damaged cells were regenerated by confirming whether the increased expression levels of the apoptotic-inducing factors such as cleaved PARP-1, cleaved Caspase-3, and […] decreased again when treated with the peptide of the present invention.
as §2
The cells were cultured in a CO2 incubator at 37° C. for 1 hour, the medium of the cultured cells was transferred to a tube, 1 mL of PBS was added, and then irradiation was performed with 6 J/cm^2 of UVA using a UV irradiator (VILBER LOURMAT, Cat No.: 3102-BSU, France). After removing PBS, 900 μL of the medium transferred to the tube was added again, and culture was performed in a CO2 incubator at 37° C. for 48 hours. […]

“LKKNGSCKRGPRTHYGQK [peptide of the present invention]” was tested, and the “expression and activity of MMP-2 increased by UV irradiation” value (MMP-2) was “inhibited”, the “mRNA expression of collagen decreased by UV irradiation” value (collagen (Col1a1)) was “increased” and the “intracellular reactive oxygen species level increased by ultraviolet irradiation” value [1] was “decreased”. For the same sequence, the “mRNA expression of elastin decreased by UV irradiation” value (elastin) was “increased”, the “expression and activity of MMP-1 increased by UV irradiation” value (MMP-1 [2]) was “inhibited” and the “amount of MMP-1 protein whose expression was increased by heat treatment” value (MMP-1 [3]) was “decreased”. For the same sequence, the “mRNA expression of fibronectin decreased by UV irradiation” value (fibronectin) was “increased” and the “expression of the apoptotic-inducing factors increased in the cells damaged by UV irradiation” value [4] was “decreased”.
